According to US7063844B2, “Presentation of hydrophobic antigens to T-cells by CD1 molecules” (The Brigham and Women's Hospital, Inc., priority 1992, dated 2006):
Where two headings read alike, the source gives them in different places.

Tests used:
[1] = in vivo; cited from earlier work
[2] = tested on: T-cell line DN1; assay type: cell-based, human; conditions: CD1+ APCs (GM-CSF- and IL-4-treated monocytes)
[3] = tested on: peripheral blood monocytes; assay: CD1 expression on cytokine-cultured monocytes, flow cytometry; assay type: cell-based, human; conditions: for expression of CD1a, CD1b and CD1c on monocytes: monocytes cultured with cytokine, 60 hours
[4] = tested on: T-cell line LDN4; assay: Proliferation of CD1b-restricted line LDN4; assay type: cell-based, human
[5] = tested on: T-cell line BDN2; assay type: cell-based, human
[6] = tested on: T-cell line DG.1; assay type: cell-based, human; conditions: CD1+ PBMCs from HLA-DR7 positive individual as APCs
[7] = tested on: T-cell line OAB8; assay: Proliferation assay, CD8+ TCR αβ+ line OAB8; assay type: cell-based, human; conditions: mycolic acid at 1 μg/ml
[8] = tested on: T-cell lines SP-F3, CP.1.15, BK6; assay: Proliferation of further T-cell lines to test mitogenicity (SP-F3, CP.1.15, BK6); assay type: cell-based, human
[9] = tested on: T-cell line DN6; assay: Proliferation assay, CD1c-restricted line DN6; assay type: cell-based, human; conditions: CD1+ APCs
[10] = tested on: T-cell line OGD1; assay: Proliferation assay, TCR γδ+ line OGD1; assay type: cell-based, human; conditions: activated monocytes, 3 day assay

Molecule: 6,6-trehalose dimycolate
- antibody formation [1]: enhance antibody formation
- nonspecific immunity to bacterial infections and tumors [1]: stimulate nonspecific immunity
- proliferative response of T-cell line DN1 to antigen [2]: stimulated the proliferation

Molecule: CCCCCCCCCCCCCCCCCCCCCC(=O)OC[C@H]1O[C@H](O[C@H]2O[C@H](COC(=O)CCCCCCCCCCCCCCCCCCCCC)[C@@H](O)[C@H](O)[C@H]2O)[C@H](O)[C@@H](O)[C@@H]1O [trehalose dibehanate]
- proliferative response of T-cell line DN1 to antigen [2]: no stimulation

Molecule: GM-CSF: granulocyte/monocyte colony stimulating factor used alone
- expression of CD1a, CD1b and CD1c on monocytes [3]: somewhat less

Molecule: lipoarabinomannan [LAM]
- proliferative response of LDN4 to antigen [4]: proliferated
- proliferative response of LDN4 to antigen ([4]; listed as Lep LAM): stimulated
- proliferative response of LDN4 to antigen ([4]; listed as native LAM): striking T-cell proliferation
- response of BDN2 to antigen [5]: responded

Molecule: mycolic acid
- recognition by T-cell line DG.1 (proliferative response) [6]: recognized only by CD1b-restricted DN1 T-cells
- response of OAB8 to antigen [7]: recognized
- proliferative response of SP-F3, CP.1.15 and BK6 [8]: did not respond
- mitogenicity ([8]; six T-cell lines tested): not mitogenic
- recognition by T-cell line DN6 (proliferative response) [9]: recognized only by CD1b-restricted DN1 T-cells
- response of OGD1 to antigen [10]: recognized
- proliferative response of T-cell line DN1 to antigen [2]: recognized

Molecule: mycolic acid-arabinogalactan-peptidoglycan [mAGP]
- proliferative response of LDN4 to antigen [4]: No response

Molecule: phosphatidylinositol mannoside [PIM]
- proliferative response of LDN4 to antigen [4]: ten-fold more than media alone

B1: interferon-γ: cytokine, 100 U/ml (protein, UniProt P01579 24-161, looked up)
Interferon gamma: QDPYVKEAENLKKYFNAGHSDVADNGTLFLGILKNWKEESDRKIMQSQIVSFYFKLFKNFKDDQSIQKSVETIKEDMNVKFFNSNKKKRDDFEKLTNYSVTDLNVQRKAIHELIQVMAELSPAAKTGKRKRSQMLFRG
- expression of CD1a, CD1b and CD1c on monocytes [3]: did not express significant levels

B2: Il-10: cytokine strongly expressed in lepromatous lesions (protein, UniProt P22301 19-178, looked up)
Interleukin-10: SPGQGTQSENSCTHFPGNLPNMLRDLRDAFSRVKTFFQMKDQLDNLLLKESLLEDFKGYLGCQALSEMIQFYLEEVMPQAENQDPDIKAHVNSLGENLKTLRLRLRRCHRFLPCENKSKAVEQVKNAFNKLQEKGIYKAMSEFDIFINYIEAYMTMKIRN
- inhibition of the expression of CD1 on monocytes ([3]; data not shown): could inhibit
